Measurements reported in US9340532B2, “Methods and compositions for inhibiting CNKSR1” (PHUSIS THERAPEUTICS, INC., priority 2012, dated 2016).
Where two headings read alike, the source gives them in different places.

Experiments:
CNK1 PH-domain (CNKSR1) = target: T1, CNK1 PH-domain (CNKSR1) (Homo sapiens, UniProt Q969H4); assay: SPR binding assay (Biacore T100), CNK1 PH-domain; details: for Surface Plasmon Resonance CNKSR1 binding (RU max) / Surface Plasmon Resonance CNKSR1 stability (RU max post-injection): date 12 09 13
T1 construct: The PH-domain His-fusion proteins (CNK1 and AKT1) were expressed and immobilized on a NTA chip; made in house
T1 sequence (Q969H4 403-502 limits assumed): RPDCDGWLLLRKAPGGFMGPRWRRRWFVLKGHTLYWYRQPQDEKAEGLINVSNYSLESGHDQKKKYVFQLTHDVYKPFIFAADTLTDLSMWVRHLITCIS
Experimental: (§1) All interaction analyses were done with a Biacore T100 Control Software v3.2, and BIAevaluation v4.1 analysis software (Biacore). The PH-domain His-fusion proteins (CNK1 and AKT1) were expressed and immobilized on a NTA chip to a level of 10,000 response units or less. Small molecule analytes at concentrations ranging from 50 μM to 0.010 μM were injected at a high flow rate (30 μL/min) DMSO concentrations in all samples and running buffer were 1-5% (v/v).
Other docking was performed using modeling algorithms with state-of-the-art commercial drug discovery software (Schrodinger suite). […] Additionally, ligand-based approaches provided an alternative to structure based drug discovery. Ligand-based virtual screening methodologies can take into account shape and electrostatics (like ROCS) and the pharmacophoric features (acceptor, donor, hydrophobic, aromatic, etc.) of its functional groups. […] SPR interaction analyses of all other compounds was undertaken using a Biacore T100 with Control and Evaluation software kit.

wt-KRAS NSCLC cell lines = assay: Screening against NSCLC cell line panel, wt-KRAS lines; format: cell-based; details: for inhibition of wt-KRAS cell growth (in words): FIG. 5
Experimental: (§2) The isogenic KRAS lines harboring G12D, G12C, and G12V were obtained from Horizon Discovery labs on a one year lease. These cells were cultured in McCoys media with 10% FBS to 80% confluency. Cells were then released from flasks via trypsinization and plated into 96-well plates at an initial density range of 2000 cells per well. Cells were allowed 24 hours to attach, and then the agents were added to the culture media at a range of concentrations from 0-100 μM. Cells were incubated for 72 hours with the drugs, and then viability was assessed using an MTS viability assay. Cells were exposed to MTS reagent (Promega) dissolved in PBS (Hyclone) at a concentration of 200 μL reagent/mL media for 2 hours. Absorbance was then read at 490 nm, and viability was expressed as a percentage normalized between the negative control (no cells plated) and the condition of cells with no drug added (100% viability) normalized as the upper limit of viability.
(§3) Our panel of 30 cell lines and an extensive characterization were obtained from Dr. John Minna (UTSW). All cell lines were cultured in RPMI 1640 with 10% FBS. Cells were treated with concentrations of agents at concentrations 0.01 to 50 μM and evaluated as described above. IC50's were determined using Excelfit.

[1] = test system: mut-KRAS NSCLC cell lines; assay: Screening against NSCLC cell line panel, mut-KRAS lines; format: cell-based; details: for inhibition of mut-KRAS cell growth (in words): FIG. 3 and FIG. 5
Experimental: as §2, §3

AKT1 PH-domain = target: T2, AKT1 PH-domain (Homo sapiens, UniProt P31749); assay: SPR binding assay (Biacore T100), AKT1 PH-domain; details: for Kd: read-out: AKT KD; for AKT KD: Table 7, curated diversity set
T2 construct: The PH-domain His-fusion proteins (CNK1 and AKT1) were expressed and immobilized on a NTA chip; made in house
T2 sequence (P31749 5-108 limits assumed): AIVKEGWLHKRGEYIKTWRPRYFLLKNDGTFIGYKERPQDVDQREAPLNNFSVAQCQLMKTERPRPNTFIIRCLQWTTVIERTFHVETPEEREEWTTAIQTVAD
Experimental: as §1
A commercially available docking package, GOLD (GOLD [3.2], CCDC: Cambridge, UK, 2007) was used to evaluate the docking of compounds 1-7 into the binding pocket, see e.g. Table 5. Other docking was performed using modeling algorithms with state-of-the-art commercial drug discovery software (Schrodinger suite). GLIDE was chosen as the docking algorithm used to select and optimize compounds, providing a GlideScore as a rough estimate of binding affinity that was used to rank and select the best compounds. Additionally, ligand-based approaches provided an alternative to structure based drug discovery. Ligand-based virtual screening methodologies can take into account shape and electrostatics (like ROCS) and the pharmacophoric features (acceptor, donor, hydrophobic, aromatic, etc.) of its functional groups. Inositol tetraphosphate (IP4) binding to the PH-domain of CNKSR1 provided a good starting point for shape screening. Both structure-based and ligand-based approaches were used to find novel compounds (Table 7) and to refine and improve lead compounds (Tables 8, and 9). SPR interaction analyses for Compounds 1 through 7 were performed with a Biacore 2000, using Biacore2000 Control Software v3.2 and BIAevaluation v4.1 analysis software (Biacore) as described in Mol Cancer Ther 7:2621 (2008). SPR interaction analyses of all other compounds was undertaken using a Biacore T100 with Control and Evaluation software kit.

[2] = test system: H226 (KRAS wildtype cell line); assay: Proliferation Assay H226; format: cell-based; details: Homo sapiens, NCI-H226, n = 1
Experimental: as §2, §3

[3] = Mouse pharmacokinetics (iv); format: in vivo; details: for clearance: in vivo
[4] = test system: H1975 (KRAS wildtype cell line); assay: Proliferation Assay H1975; format: cell-based; details: Homo sapiens, NCI-H1975, n = 1
Experimental: as §2, §3

[5] = test system: A549 (KRAS mutant cell line); assay: Proliferation Assay A549; format: cell-based; details: Homo sapiens, N = 2 experiments
Experimental: as §2, §3

[6] = test system: H1373 (KRAS mutant cell line); assay: Proliferation Assay H1373; format: cell-based; details: Homo sapiens, NCI-H1373, N = 2 experiments
Experimental: as §2, §3

[7] = Table 7, read-out: IC50 WT-KRAS
[8] = Table 7, read-out: IC50 mut-KRAS
[9] = Table 5, read-out: Mean IC50 mut-KRAS

| Structure (SMILES) | Surface Plasmon Resonance CNKSR1 binding (RU max) (CNK1 PH-domain (CNKSR1)) [RU * 100/Da] | Surface Plasmon Resonance CNKSR1 stability (RU max post-injection) (CNK1 PH-domain (CNKSR1)) [RU * 100/Da] | IC50 [2] [µM] | IC50 [4] [µM] | IC50 [5] [µM] | IC50 [6] [µM] | Kd (CNK1 PH-domain (CNKSR1); Table 8, read-out: CNK KD) [µM] | Kd (AKT1 PH-domain; Table 8) [µM] | further results |
| --- | --- | --- | --- | --- | --- | --- | --- | --- | --- |
| Cc1ccc(-c2csc(Cn3nc(CC4OCC(=O)O4)c4ccccc4c3=O)n2)cc1 (centres unmarked) [Compound 11] | – | – | – | – | – | – | – | – | Kd (CNK1 PH-domain (CNKSR1); Table 6, read-out: CNKS KD): 0.27 µM; inhibition of wt-KRAS cell growth (in words) (wt-KRAS NSCLC cell lines): also inhibited; IC50 (wt-KRAS NSCLC cell lines; Table 6, mean of 3 wt-KRAS lines, read-out: NSCL cell line cytotoxicity IC50 wt-KRAS): 56 µM; inhibition of mut-KRAS cell growth (in words) [1]: inhibited the growth; IC50 ([1]; Table 6, mean of 3 mut-KRAS lines, read-out: NSCL cell line cytotoxicity IC50 mut-KRAS): 45 µM; Kd (AKT1 PH-domain; Table 6): 2.53 µM |
| O=C(O)CSc1cc(NS(=O)(=O)c2cccs2)c2ccccc2c1O [Compound 12] | – | – | – | – | – | – | – | – | inhibition of wt-KRAS cell growth (in words) (wt-KRAS NSCLC cell lines): more potently than compound 7 or its analogs; IC50 (wt-KRAS NSCLC cell lines; [7]): 12 µM; inhibition of mut-KRAS cell growth (in words) [1]: more potently than compound 7 or its analogs; IC50 [1, 8]: 17 µM; AKT KD (AKT1 PH-domain): Bound |
| O=C(O)c1ccc2c(c1)C1C=CCC1C(C(=O)O)N2 (centres unmarked) [Compound 56] | – | – | – | – | – | – | – | – | IC50 (wt-KRAS NSCLC cell lines; [7]): > 100 µM; IC50 [1, 8]: > 100 µM |
| Cc1ccc(-c2nc(SCC(=O)O)c3c(=O)n(C)c(=O)n(C)c3n2)cc1 [Compound 61] | – | – | – | – | – | – | – | – | IC50 (wt-KRAS NSCLC cell lines; [7]): > 100 µM; IC50 [1, 8]: > 100 µM |
| O=C(O)COc1cc(OCC(=O)O)c2c3c(c(=O)oc2c1)CCCC3 [Compound 76] | – | – | – | – | – | – | – | – | IC50 (wt-KRAS NSCLC cell lines; [7]): > 100 µM; IC50 [1, 8]: > 100 µM; AKT KD (AKT1 PH-domain): Bound |
| CCNC(=O)Cc1nn(Cc2nc(-c3ccc(C)cc3)cs2)c(=O)c2ccccc12 [Compound 78] | 0.224 | −0.065 | 60 | 60 | 25 | 45 | – | – | Kd (CNK1 PH-domain (CNKSR1); Table 6, read-out: CNKS KD): 0.65 µM; t1/2β [3]: 28 min; clearance [3]: 34 mL/min/kg; Kd (AKT1 PH-domain; Table 6): 2.53 µM |
| Cc1ccc(-c2csc(Cn3nc(CC=O)c4ccccc4c3=O)n2)cc1 [Compound 79] | – | – | – | – | – | – | – | – | Kd (CNK1 PH-domain (CNKSR1); Table 6, read-out: CNKS KD): 4.2 µM; t1/2β [3]: 35 min; clearance [3]: 30 mL/min/kg |
| CSc1sc(C#N)c(C)c1-c1ccn(S(=O)(=O)c2ccc(Cl)cc2)n1 [Compound 117] | – | – | – | – | – | – | – | – | IC50 [1, 9]: 21.9 ± 5.7 µM |
| O=S(=O)(Nc1n[nH]c(SCc2ccc(Cl)cc2)n1)c1ccc(-c2ccccn2)s1 [Compound 118] | – | – | – | – | – | – | – | – | IC50 [1, 9]: 49.3 ± 0.6 µM |
| Cn1c(Cc2nn(C)c(=O)c3ccccc23)nnc1SCC(=O)c1ccc(Cl)cc1Cl [Compound 119] | – | – | – | – | – | – | – | – | IC50 [1, 9]: > 50 µM |
| O=C(CSc1nnnn1-c1cccc(Cl)c1)c1cc2ccccc2o1 [Compound 121] | – | – | – | – | – | – | – | – | IC50 [1, 9]: 46.7 ± 3.3 µM |
| N#Cc1cnn(-c2ccccc2)c1NC(=O)CSc1nnc(-c2ccco2)n1-c1ccc(F)cc1 [Compound 122] | – | – | – | – | – | – | – | – | IC50 [1, 9]: > 50 µM |
| Cc1ccc(-c2csc(Cn3nc(CC(=O)N4CCN(C)CC4)c4ccccc4c3=O)n2)cc1 [Compound 123] | – | – | – | – | – | – | – | – | t1/2β [3]: 327 min; clearance [3]: 31 mL/min/kg |

Continued, in another order:

| Surface Plasmon Resonance CNKSR1 binding (RU max) (CNK1 PH-domain (CNKSR1)) [RU * 100/Da] | Surface Plasmon Resonance CNKSR1 stability (RU max post-injection) (CNK1 PH-domain (CNKSR1)) [RU * 100/Da] | IC50 [2] [µM] | IC50 [4] [µM] | IC50 [5] [µM] | IC50 [6] [µM] | Kd (CNK1 PH-domain (CNKSR1); Table 8, read-out: CNK KD) [µM] | Kd (AKT1 PH-domain; Table 8) [µM] | Structure (SMILES) | further results |
| --- | --- | --- | --- | --- | --- | --- | --- | --- | --- |
| −0.807 | −0.197 | > 100 | > 100 | > 100 | > 100 | 123 | > 500 | CCOC(=O)/C=C/c1cc(NS(=O)(=O)c2cccs2)c2c(c1OC)OCO2 [Compound 86, (E)-ethyl 3-(4-methoxy-7-(thiophene-2-sulfonamido)benzo[d][1,3]dioxol-5-yl)acrylate] | – |
| 2.132 | 2.049 | 75 | > 100 | 60 | 82 | 1.56 | 4.8 | COc1cc(NS(=O)(=O)c2cccs2)c(SC)c(/C=C/C(=O)O)c1O [Compound 104, (2E)-3-[2-hydroxy-3-methoxy-6-(methylsulfanyl)-5-(thiophene-2-sulfonamido)phenyl]prop-2-enoic acid] | – |
| −0.676 | −0.197 | 70 | > 100 | 100 | 42 | 2.86 | 6.22 | CCOC(=O)/C=C/c1c(O)c(O)cc(NS(=O)(=O)c2cccs2)c1SC [Compound 105, ethyl (2E)-3-[2,3-dihydroxy-6-(methylsulfanyl)-5-(thiophene-2-sulfonamido)phenyl]prop-2-enoate] | – |
| −0.928 | 0.511 | 70 | > 100 | 55 | 58 | 0.614 | 13.5 | CSc1c(NS(=O)(=O)c2cccs2)cc(O)c(O)c1/C=C/C(=O)O [Compound 106, (2E)-3-[2,3-dihydroxy-6-(methylsulfanyl)-5-(thiopliene-2-sulfonamido)phenyl]prop-2-enoic acid] | – |
| −0.174 | −0.083 | 60 | 95 | 45 | 45 | 125 | 286 | CCOC(=O)/C=C/c1c(O)c(OC)cc(N)c1SC [Compound 107, ethyl (E)-3-(5-amino-2-hydroxy-3-methoxy-6-methylsulfanylphenyl)prop-2-enoate] | – |
| −0.024 | 0.056 | 55 | 100 | 30 | 38 | 72.5 | 133 | COc1cc(N)c(SC)c(/C=C/C(=O)O)c1O [Compound 108, (2E)-3-[3-amino-6-hydroxy-5-methoxy-2-(methylsulfanyl)phenyl]prop-2-enoic acid] | – |
| 1.527 | 0.168 | > 100 | > 100 | > 100 | > 100 | 19.2 | 140 | CCOC(=O)/C=C/c1c(O)c(O)cc(N)c1SC [Compound 109, ethyl (2E)-3-[3-amino-5,6-dihydroxy-2-(methylsulfanyl)phenyl]prop-2-enoate] | – |
| 0.217 | 0.032 | 65 | > 100 | 27 | 28 | – | 178 | CSc1c(N)cc(O)c(O)c1/C=C/C(=O)O [Compound 110, (2E)-3-[3-amino-5,6-dihydroxy-2-(methylsulfanyl)phenyl]prop-2-enoic acid] | – |
